# Measured values from patent US20060089302A1, “Hsp70-derived peptides and uses thereof in the diagnosis and treatment of autoimmune diseases” (priority 2002, published 2006).
# “And” between values parts separate entries of the source, which are not always exact repeats. Equal entries are not always repeated.
# Legend:
# [1] = test system: peripheral blood mononuclear cells (PBMC) / T-cells; assay: T-cell proliferation assay (3H-Thymidine incorporation, stimulation index); format: cell-based, human; details: for T-cell reactivity to hsp70 peptide (epitope mapping): seven Type 1 Diabetes patients (P3, P16, P18, P20, P21, P23, P24), immunogenic when at least 3 out of 7 patients had S.I.≥2; for T-cell reactivity to hsp70 peptide (epitope mapping) / Number of Type 1 Diabetes subjects responding to the peptide: peptide 5-20 μg/ml; for T-cell proliferative response, S.I., Mean ± SD: group mean; for Number of Type 1 Diabetes subjects responding to the peptide: epitope mapping, seven subjects tested (p1: three of these plus two adult patients), S.I.≥2
# [2] = test system: serum IgG anti-hsp60, anti-hsp70, anti-hsp90, anti-tetanus toxoid; assay: Determination of auto-antibodies (antibody capture ELISA on antigen-coated plates); format: binding, human; details: for IgG antibodies to the antigen in serum, Mean ± SD: group mean
# Method: All of the serum samples that were collected were stored in aliquotes at −20° C. and thawed before each assay. Total human IgG anti-hsp60, anti-hsp70, and anti-hsp90, as well as anti-tetanus toxoid proteins were detected by the antibody capture-type enzyme immunoassay ELISA [Maggio, M. T. (1981) Enzyme Immunoassay, CRC Press, Boca Raton, USA]. 96-well micro titer plates (Dynatech) were coated with the protein according to the antibody being tested. Serum samples were distributed at dilutions in the range of 1:50 to 1:70 into the pre-coated wells for the protein detection assay. Thus, any IgG anti-hsp60, anti-hsp70, anti-hsp90, or anti-tetanus toxoid present should be bound by the immobilized peptide or protein. After washing off unbound material, a mouse monoclonal anti-human IgG antibody conjugated to alkaline phosphatase (AP) was added to the wells. After an additional washing step to remove any unbound anti-enzyme reagent, the AP substrate p-nitrophenyl phosphate (pNPP) solution was added. The intensity of the color developed was measured using an Anthos htll ELISA reader at λ=405 nm. The amount of antibody detected was represented as Units of Optical Density at λ=405 nm. Patients and control subjects were assayed in the same experiment.
# The InStat 2.01 computer program was used for the statistical analysis. The results obtained from the samples of healthy individuals were used to determine the cutoff for each assay, which was established as the mean plus two standard deviations (SDs). […] The results were presented as the percentage of positive from the total tested group.
# Levels of IgG antibodies to hsp60, hsp70, and hsp90 were measured in the sera of 20 Type 1 Diabetes children (P1-P5, P7-P21; Table 3A) and two control groups, 10 normoglycemic children (Table 3B) and 15 healthy adult blood donors (Table 3C). The level of the antibodies was scored as positive when it was greater than the cut-off level (cut-off levels were established based on the mean value of antibody levels from the normoglycemic children plus two standard deviations).
# [3] = healthy subjects / healthy blood donors
# [4] = Type 1 diabetes children (n=20), cut-off = mean of normoglycemic children plus two SD
# [5] = healthy adult blood donors (n=15)
# [6] = pediatric control serum donors / healthy children (n=10)
substance,measurement,setting,value
"KRTLSSSTQASLEIDSLFEG (listed as Homo sapiens) [p19, human hsp70 residues 271-290]",T-cell reactivity to hsp70 peptide (epitope mapping),[1],triggered a T-cell response
"hsp70: recombinant human hsp70 (StressGen, Canada), intact heat-shock protein","T-cell proliferative response, S.I., Mean ± SD",[1]; Healthy subjects,1.4±0.6 and 1.45±0.6 and 1.44 ± 0.6
same,"T-cell proliferative response, S.I., Mean ± SD",[1]; Type 1 Diabetes adult patients,2.6+0.84 and 2.6 ± 0.84
same,Responding subjects (S.I.≥2),"[1]; Type 1 Diabetes adult patients, within 12 weeks from diagnosis",about 86%
same,Responding subjects (S.I.≥2),[1]; Type 1 Diabetes children,85%
same,Responding subjects (S.I.≥2),[1]; Type 2 Diabetes patients,27%
same,"T-cell proliferative response, S.I., Mean ± SD",[1]; Type 2 Diabetes patients,1.8±1.3 and 1.8 ± 1.26
same,Responding subjects (S.I.≥2),[1]; [3],14% and 13%
same,"IgG antibodies to the antigen in serum, Mean ± SD",[2]; Type 1 Diabetes children,0.5 ± 0.41 Units of Optical Density at λ=405 nm
same,Positive (antibody level above cut-off),[2]; [4],30%
same,Positive (antibody level above cut-off),"[2]; Type 1 diabetes children (n=20), cut-off = mean of normoglycemic children plus two SD, listed as Hsp70",30%
same,Positive (antibody level above cut-off),[2]; [5],6%
same,Positive (antibody level above cut-off),"[2]; healthy adult blood donors (n=15), listed as Hsp70",6.6%
same,"IgG antibodies to the antigen in serum, Mean ± SD",[2]; healthy adult blood donors,0.43 ± 0.1 Units of Optical Density at λ=405 nm
same,Positive (antibody level above cut-off),[2]; [6],none
same,Positive (antibody level above cut-off),"[2]; pediatric control serum donors / healthy children (n=10), listed as Hsp70",0%
same,"IgG antibodies to the antigen in serum, Mean ± SD",[2]; pediatric control serum donors,0.35 ± 0.09 Units of Optical Density at λ=405 nm
"PTKQTQIFTTYSDNQPGVLI (listed as Homo sapiens) [p29, human hsp70 residues 421-440]",T-cell reactivity to hsp70 peptide (epitope mapping),[1],triggered a T-cell response
"KANKITITNDKGRLSKEEIE (listed as Homo sapiens) [p34, human hsp70 residues 496-515]",T-cell reactivity to hsp70 peptide (epitope mapping),[1],triggered a T-cell response
"KEEIERMVQEAEKYKAEDEV (listed as Homo sapiens) [p35, human hsp70 residues 511-530]",Number of Type 1 Diabetes subjects responding to the peptide,[1],five
same,T-cell reactivity to hsp70 peptide (epitope mapping),[1],triggered a T-cell response
"LLLLDVAPLSLGLETAGGVM (listed as Homo sapiens) [p27, human hsp70 residues 391-410]",Number of Type 1 Diabetes subjects responding to the peptide,[1],six out of seven
same,T-cell reactivity to hsp70 peptide (epitope mapping),[1],triggered a T-cell response
"hsp90: recombinant human hsp90 (StressGen, Canada), heat-shock protein","T-cell proliferative response, S.I., Mean ± SD",[1]; Healthy subjects,1.52±0.7
same,"T-cell response, in words","[1]; Type 1 Diabetes adult patients (Table 1D), tested after more than 12 weeks",No response
same,"T-cell proliferative response, S.I., Mean ± SD",[1]; Type 1 Diabetes adult patients,1.4 ± 0.3
same,Responding subjects (S.I.≥2),[1]; Type 1 Diabetes children,21%
same,"T-cell proliferative response, S.I., Mean ± SD",[1]; Type 1 Diabetes children,1.7±1.2 and 1.7 ± 1.1
same,Responding subjects (S.I.≥2),[1]; Type 2 Diabetes patients,9%
same,"T-cell proliferative response, S.I., Mean ± SD",[1]; Type 2 Diabetes patients,1.6±1.4 and 1.6 ± 1.38
same,Responding subjects (S.I.≥2),[1]; [3],25%
same,"IgG antibodies to the antigen in serum, Mean ± SD",[2]; Type 1 Diabetes children,0.47 ± 0.13 Units of Optical Density at λ=405 nm
same,Positive (antibody level above cut-off),[2]; [4],15%
same,Positive (antibody level above cut-off),"[2]; Type 1 diabetes children (n=20), cut-off = mean of normoglycemic children plus two SD, listed as Hsp90",15%
same,Positive (antibody level above cut-off),[2]; [5],6%
same,Positive (antibody level above cut-off),"[2]; healthy adult blood donors (n=15), listed as Hsp90",6.6%
same,"IgG antibodies to the antigen in serum, Mean ± SD",[2]; healthy adult blood donors,0.46 ± 0.1 Units of Optical Density at λ=405 nm
same,Positive (antibody level above cut-off),[2]; [6],none
same,Positive (antibody level above cut-off),"[2]; pediatric control serum donors / healthy children (n=10), listed as Hsp90",0%
same,"IgG antibodies to the antigen in serum, Mean ± SD",[2]; pediatric control serum donors,0.43 ± 0.1 Units of Optical Density at λ=405 nm
"MAKAAAVGIDLGTTYSCVGV (listed as Homo sapiens) [p1, human hsp70 residues 1-20]",Number of Type 1 Diabetes subjects responding to the peptide,[1],five
same,T-cell reactivity to hsp70 peptide (epitope mapping),[1],triggered a T-cell response
"Tetanus Toxoid: recall antigen Tetanus Toxoid (Connaught Lab. Inc, Penn., USA) [reference compound]","T-cell proliferative response, S.I., Mean ± SD",[1]; Healthy subjects,8.01 ± 9.3
same,"T-cell proliferative response, S.I., Mean ± SD","[1]; Healthy subjects, listed as tetanus toxoid",9.4±6.4
same,"T-cell proliferative response, S.I., Mean ± SD",[1]; Type 1 Diabetes adult patients,14.3 ± 22.86
same,"T-cell proliferative response, S.I., Mean ± SD",[1]; Type 1 Diabetes children,17.2±16.1
same,"T-cell proliferative response, S.I., Mean ± SD","[1]; Type 1 Diabetes children, listed as T.T.",17.2 ± 15.9
same,"T-cell proliferative response, S.I., Mean ± SD",[1]; Type 2 Diabetes patients,4.4
same,"T-cell proliferative response, S.I., Mean ± SD","[1]; Type 2 Diabetes patients, listed as tetanus toxoid",4.4±2.9
same,"Serum antibodies to control antigen, in words",[2]; Type 1 Diabetes and control groups,comparably high
"TIDDGIFEVKATAGDTHLGG (listed as Homo sapiens) [p15, human hsp70 residues 210-229]",T-cell reactivity to hsp70 peptide (epitope mapping),[1],triggered a T-cell response
"THLGGEDFDNRLVNHFVEEF (listed as Homo sapiens) [p16, human hsp70 residues 225-244]",T-cell reactivity to hsp70 peptide (epitope mapping),[1],triggered a T-cell response
